As usually defined, the MIC99 is the lowest concentration that inhibits either 99% of growth or 99% of the strains tested, depending on the study.

Experimental findings from ChEMBL document CHEMBL3045331, “A clubbed quinazolinone and 4-thiazolidinone as potential antimicrobial agents” (2012) are described below.

Holding throughout (assay type): functional
The test system of assay [1] is Pseudomonas aeruginosa. The assay is described as follows: Antibacterial activity against Pseudomonas aeruginosa MTCC-1688 after 24 hr by serial broth dilution method. To be noted: MTCC-1688, 24 h. In general terms: In broth dilution the organism is exposed to a series of concentrations in liquid medium.
For assay [2], the system named is Aspergillus clavatus. Nature of the assay: Antifungal activity against Aspergillus clavatus MTCC 1323 after 48 hr by spot subculture method. The settings on record: MTCC 1323, 48 h.
Assay [3] has as its system Candida albicans. Nature of the assay: Antifungal activity against Candida albicans MTCC 227 after 48 hr by spot subculture method. The settings on record: MTCC 227, 48 h.
The subject of assay [4] is Staphylococcus aureus. The assay is described as follows: Antibacterial activity against Staphylococcus aureus MTCC-96 after 24 hr by serial broth dilution method. The settings on record: MTCC-96, 24 h.
Assay [5] has as its system Aspergillus niger. The assay is described as follows: Antifungal activity against Aspergillus niger MTCC 282 after 48 hr by spot subculture method. To be noted: MTCC 282, 48 h.
Assay [6] has as its system Escherichia coli. Nature of the assay: Antibacterial activity against Escherichia coli MTCC 443 after 24 hr by serial broth dilution method. The settings on record: MTCC 443, 24 h.
Assay [7] relates to Streptococcus pyogenes. The assay is described as follows: Antibacterial activity against Streptococcus pyogenes MTCC-442 after 24 hr by serial broth dilution method. To be noted: MTCC-442, 24 h.

≈ marks a conversion by molar mass, not a printed value.

For the molecule `Cc1ccc(-c2nc3ccccc3c(=O)n2-c2ccc(C(=O)NN3C(=O)/C(=C/c4ccc(Cl)cc4)SC3c3ccc(O)cc3)cc2)cc1` (stereo not given), the MIC99 in assay [1] was 100 µg/mL (≈ 149 µM); in assay [2], 1000 µg/mL (≈ 1490 µM); in assay [3], 100 µg/mL (≈ 149 µM); in assay [4], 500 µg/mL (≈ 745 µM); in assay [5], 1000 µg/mL (≈ 1490 µM); in assay [6], 50 µg/mL (≈ 74.5 µM). The molecule further came in with an MIC99 in assay [7] of 500 µg/mL (≈ 745 µM).

As to `COc1ccccc1/C=C1\SC(c2ccc(O)cc2)N(NC(=O)c2ccc(-n3c(-c4ccc(C)cc4)nc4ccccc4c3=O)cc2)C1=O` (stereo not given), the MIC99 in assay [1] was determined as 100 µg/mL (≈ 150 µM); in assay [2], 500 µg/mL (≈ 750 µM); in assay [3] it was 500 µg/mL (≈ 750 µM); in assay [4], 100 µg/mL (≈ 150 µM); in assay [5] it was 500 µg/mL (≈ 750 µM); in assay [6], 500 µg/mL (≈ 750 µM). Further, the MIC99 in assay [7] came to 500 µg/mL (≈ 750 µM).

With `COC1=CC(=O)C[C@@H](C)[C@]12Oc1c(Cl)c(OC)cc(OC)c1C2=O` [GRISEOFULVIN], the MIC99 in assay [2] worked out at 100 µg/mL (≈ 283 µM); in assay [3] it was 500 µg/mL (≈ 1420 µM); in assay [5], 100 µg/mL (≈ 283 µM).

As for `Cc1ccc(-c2nc3ccccc3c(=O)n2-c2ccc(C(=O)NN3C(=O)/C(=C/c4cc(Br)ccc4O)SC3c3ccc(O)cc3)cc2)cc1` (stereo not given), the MIC99 amounted to 500 µg/mL (≈ 683 µM) in assay [1]; 100 µg/mL (≈ 137 µM) in assay [2]; 500 µg/mL (≈ 683 µM) in assay [3]; 250 µg/mL (≈ 342 µM) in assay [4]; 1000 µg/mL (≈ 1370 µM) in assay [5]; 500 µg/mL (≈ 683 µM) in assay [6]. Besides, the MIC99 in assay [7] is 100 µg/mL (≈ 137 µM).

As to `Cc1ccc(-c2nc3ccccc3c(=O)n2-c2ccc(C(=O)NN3C(=O)/C(=C/c4ccc5ccccc5c4O)SC3c3ccc(O)cc3)cc2)cc1` (stereo not given), the MIC99 in assay [1] turned out to be 50 µg/mL (≈ 71.1 µM); in assay [2], 100 µg/mL (≈ 142 µM); in assay [3] it was 100 µg/mL (≈ 142 µM); in assay [4] it was 100 µg/mL (≈ 142 µM); in assay [5] it was 1000 µg/mL (≈ 1420 µM); in assay [6], 100 µg/mL (≈ 142 µM). For the same molecule, the MIC99 in assay [7] is 100 µg/mL (≈ 142 µM).

In the case of `COc1ccc(/C=C2\SC(c3ccc(O)cc3)N(NC(=O)c3ccc(-n4c(-c5ccc(C)cc5)nc5ccccc5c4=O)cc3)C2=O)cc1` (stereo not given), the MIC99 in assay [1] is 500 µg/mL (≈ 750 µM); in assay [2], 100 µg/mL (≈ 150 µM); in assay [3], 1000 µg/mL (≈ 1500 µM); in assay [4], 500 µg/mL (≈ 750 µM); in assay [5], 100 µg/mL (≈ 150 µM); in assay [6] it was 100 µg/mL (≈ 150 µM). In addition, in assay [7], the MIC99 was 500 µg/mL (≈ 750 µM).

Take `Cc1ccc(-c2nc3ccccc3c(=O)n2-c2ccc(C(=O)NN3C(=O)/C(=C/c4ccc(N(C)C)cc4)SC3c3ccc(O)cc3)cc2)cc1` (stereo not given): the MIC99 in assay [1] is 200 µg/mL (≈ 294 µM); in assay [2], 500 µg/mL (≈ 736 µM); in assay [3], 1000 µg/mL (≈ 1470 µM); in assay [4] it was 1000 µg/mL (≈ 1470 µM); in assay [5] it was 100 µg/mL (≈ 147 µM); in assay [6] it was 25 µg/mL (≈ 36.8 µM). This molecule had an MIC99 in assay [7] of 100 µg/mL (≈ 147 µM).

In the case of `Cc1ccc(-c2nc3ccccc3c(=O)n2-c2ccc(C(=O)NN3C(=O)/C(=C/c4ccc(O)cc4)SC3c3ccc(O)cc3)cc2)cc1` (stereo not given), the MIC99 in assay [1] turned out to be 500 µg/mL (≈ 766 µM); in assay [2], 100 µg/mL (≈ 153 µM); in assay [3] it was 1000 µg/mL (≈ 1530 µM); in assay [4], 100 µg/mL (≈ 153 µM); in assay [5], 1000 µg/mL (≈ 1530 µM); in assay [6], 100 µg/mL (≈ 153 µM). The molecule further gave an MIC99 in assay [7] of 50 µg/mL (≈ 76.6 µM).

Consider `Cc1ccc(-c2nc3ccccc3c(=O)n2-c2ccc(C(=O)NN3C(=O)/C(=C/c4ccc(F)cc4)SC3c3ccc(O)cc3)cc2)cc1` (stereo not given), for which the MIC99 in assay [1] worked out at 50 µg/mL (≈ 76.4 µM); in assay [2], 1000 µg/mL (≈ 1530 µM); in assay [3] it was 100 µg/mL (≈ 153 µM); in assay [4] it was 100 µg/mL (≈ 153 µM); in assay [5], 500 µg/mL (≈ 764 µM); in assay [6], 500 µg/mL (≈ 764 µM). In assay [7], this molecule had an MIC99 of 250 µg/mL (≈ 382 µM).

On to `Cc1ccc(-c2nc3ccccc3c(=O)n2-c2ccc(C(=O)NN3C(=O)/C(=C/c4ccccc4Cl)SC3c3ccc(O)cc3)cc2)cc1` (stereo not given), for which the MIC99 in assay [1] came to 500 µg/mL (≈ 745 µM); in assay [2] it was 1000 µg/mL (≈ 1490 µM); in assay [3], 1000 µg/mL (≈ 1490 µM); in assay [4] it was 500 µg/mL (≈ 745 µM); in assay [5], 1000 µg/mL (≈ 1490 µM); in assay [6], 200 µg/mL (≈ 298 µM). Further, the MIC99 in assay [7] amounted to 100 µg/mL (≈ 149 µM).

As to `Cc1ccc(-c2nc3ccccc3c(=O)n2-c2ccc(C(=O)NN3C(=O)/C(=C/c4ccccc4)SC3c3ccc(O)cc3)cc2)cc1` (stereo not given), the MIC99 in assay [1] was 500 µg/mL (≈ 785 µM); in assay [2], 1000 µg/mL (≈ 1570 µM); in assay [3], 500 µg/mL (≈ 785 µM); in assay [4], 500 µg/mL (≈ 785 µM); in assay [5], 1000 µg/mL (≈ 1570 µM); in assay [6], 200 µg/mL (≈ 314 µM). The MIC99 in assay [7] is 100 µg/mL (≈ 157 µM).

For `COc1cc(/C=C2\SC(c3ccc(O)cc3)N(NC(=O)c3ccc(-n4c(-c5ccc(C)cc5)nc5ccccc5c4=O)cc3)C2=O)cc(OC)c1OC` (stereo not given), the MIC99 in assay [1] amounted to 100 µg/mL (≈ 138 µM); in assay [2] it was 1000 µg/mL (≈ 1380 µM); in assay [3], 1000 µg/mL (≈ 1380 µM); in assay [4] it was 100 µg/mL (≈ 138 µM); in assay [5] it was 100 µg/mL (≈ 138 µM); in assay [6], 100 µg/mL (≈ 138 µM). In assay [7], this molecule displayed an MIC99 of 200 µg/mL (≈ 275 µM).

For the molecule `CC1(C)S[C@@H]2[C@H](NC(=O)[C@H](N)c3ccccc3)C(=O)N2[C@H]1C(=O)O` [AMPICILLIN], the MIC99 in assay [1] turned out to be 100 µg/mL (≈ 286 µM); in assay [4] it was 250 µg/mL (≈ 715 µM); in assay [6] it was 100 µg/mL (≈ 286 µM); in assay [7], 100 µg/mL (≈ 286 µM).

Take `COc1ccc(/C=C2\SC(c3ccc(O)cc3)N(NC(=O)c3ccc(-n4c(-c5ccc(C)cc5)nc5ccccc5c4=O)cc3)C2=O)c(O)c1` (stereo not given): the MIC99 was found to be 200 µg/mL (≈ 293 µM) in assay [1]; 500 µg/mL (≈ 732 µM) in assay [2]; 500 µg/mL (≈ 732 µM) in assay [3]; 250 µg/mL (≈ 366 µM) in assay [4]; 1000 µg/mL (≈ 1460 µM) in assay [5]; 100 µg/mL (≈ 146 µM) in assay [6]. Moreover, the MIC99 in assay [7] was 500 µg/mL (≈ 732 µM).

As to `Cc1ccc(-c2nc3ccccc3c(=O)n2-c2ccc(C(=O)NN3C(=O)/C(=C/c4cccc([N+](=O)[O-])c4)SC3c3ccc(O)cc3)cc2)cc1` (stereo not given), the MIC99 in assay [1] is 100 µg/mL (≈ 147 µM); in assay [2], 500 µg/mL (≈ 733 µM); in assay [3], 100 µg/mL (≈ 147 µM); in assay [4] it was 50 µg/mL (≈ 73.3 µM); in assay [5] it was 100 µg/mL (≈ 147 µM); in assay [6], 25 µg/mL (≈ 36.7 µM). The same molecule came in with an MIC99 in assay [7] of 500 µg/mL (≈ 733 µM).

With `Cc1ccc(-c2nc3ccccc3c(=O)n2-c2ccc(C(=O)NN3C(=O)/C(=C/c4c(Cl)cccc4Cl)SC3c3ccc(O)cc3)cc2)cc1` (stereo not given), the MIC99 came out at 200 µg/mL (≈ 283 µM) in assay [1]; 1000 µg/mL (≈ 1420 µM) in assay [2]; 500 µg/mL (≈ 709 µM) in assay [3]; 100 µg/mL (≈ 142 µM) in assay [4]; 100 µg/mL (≈ 142 µM) in assay [5]; 50 µg/mL (≈ 70.9 µM) in assay [6]. Also, the MIC99 in assay [7] is 100 µg/mL (≈ 142 µM).
